Measured values: patent US9637484B2, “Cycloalkyl acid derivative, preparation method thereof, and pharmaceutical application thereof” (Shanghai Hengrui Pharmaceutical Co., Ltd., priority 2013, dated 2017)

Legend:
[1] = biological target: hURAT1 (Homo sapiens (Human), UniProt Q96S37); experiment: Assay for inhibiting URAT1: uptake of 14C-uric acid in HEK293/hURAT1 cells; type: cell-based; conditions: 14C-uric acid 11.57 μM, 12 minutes at room temperature
Description: In vitro URAT1 assay can be used to identify compounds having potential activity for decreasing serum uric acid. In a suitable test, the vectors that encode human URAT1 (URAT1 cDNA: Guangzhou Copoeia EX-T4563-M02) were used to transfect cells (human embryonic kidney cells, HEK293: Cell Bank of the Chinese Academy of Sciences, GNHu18). The transfected cells—HEK293/hURAT1 cells—were obtained, then their uptake ability of radiolabeled uric acid was determined. The activity of the compounds as URAT1 inhibitors can be evaluated by the ability of the compounds to block the uptake of uric acid in the transfected cells.
The HEK293/hURAT1 cells in Eagle's minimal essential medium (EMEM) were inoculated in a 48-well plate that was coated with poly-D-lysine (Becton Dickinson, Catalog No. 356509), with an inoculation density of 10^5 cells/well, and incubated overnight. A reaction solution containing ^14C— uric acid (American Radioactive Compound, Catalog No. ARC 0513A) with a final concentration of 11.57 μM was prepared by the use or non-use of the test compounds in Hanks balanced salt solution (HBSS). The Hanks balanced salt solution (HBSS) contained 125 mM sodium gluconate, 4.8 mM potassium gluconate, 1.2 mM potassium dihydrogen phosphate, 1.2 mM magnesium sulfate, 1.3 mM calcium gluconate, 5.6 mM glucose and 25 mM HEPES (pH 7.3). After the medium was washed with the wash buffer (125 mM sodium gluconate, 10 mM HEPES, pH 7.3) for one time, the reaction solution prepared from the above step was added to each well and incubated at room temperature for 12 minutes. Then the reaction solution was removed, the cells were washed twice with the wash buffer and lysed with 0.2 M NaOH for 5 minutes. The cell lysate was transferred to a 96-well culture plate with a scintillation fluid (PerkinElmer, Catalog No. 1450-401), and counting of radioactivity was carried out on a Microbeta counter (PerkinElmer).
The test compounds were dissolved in DMSO, then DMSO with the same concentration was added to HEK293/hURAT1 cell wells without the test compounds. Cellular uptake of uric acid under various test conditions was expressed as average percentage inhibition rates in comparison to DMSO control. Radioactive values from the wells containing DMSO were considered as 100% uptake of the cells. IC50 values were calculated from the data of the inhibition rates at various concentrations.
The above assay was used to determine the biochemical activity of the compounds of the present invention for inhibiting hURAT1.

[2] = Pharmacokinetics assay in SD rats, intragastric administration, plasma by LC/MS/MS; type: in vivo, Sprague-Dawley (SD) rats; conditions: 3.0 mg/kg; for Vd/F / AUC / CL/F / half-life / MRT / Cmax: both sexes, Sprague-Dawley, rat, plasma, po; for Vd/F: read-out: Apparent Distribution Volume Vz/F; for AUC: read-out: Area Under Curve AUC; for CL/F: read-out: Clearance CL/F; for half-life: read-out: Half-Life T½ (converted); for MRT: read-out: Mean Residence Time MRT; for Cmax: read-out: Plasma Conc. Cmax
Description: Sprague-Dawley (SD) rats were used as test animals. The compounds of Example 1, Example 2 and Example 3 were administered intragastrically to rats to determine the drug concentration in plasma at different time points by a LC/MS/MS method. The pharmacokinetic behavior of the compounds of the present invention was studied and evaluated in rats.
12 Healthy adult SD rats, half male and half female, purchased from SINO-BRITSH SIPPR/BK LAB. ANIMAL LTD., CO, Certificate No.: SCXK (Shanghai) 2008-0016, were divided into three groups, with 4 rats in each group.
The appropriate amounts of test compounds were weighed and mixed with 0.5% CMC-Na to prepare a 0.3 mg/mL suspension by an ultrasonic method.
After an overnight fast, 12 SD rats, half male and half female, were divided into 3 groups, with 4 rats in each group, and administered the compounds intragastrically at a dose of 3.0 mg/kg and an administration volume of 10 mL/kg.
Blood samples (0.1 mL) were taken from the orbital sinus before administration, and at 0.5 h, 1 h, 2 h, 4 h, 6 h, 8 h, 11 h, 24 h and 48 h after administration, stored in heparinized tubes, and centrifuged for 10 minutes at 3,500 rpm to separate blood plasma. The plasma samples were stored at −20° C.
The concentration of the test compounds in rat plasma after intragastrically administering the test compounds was analyzed by a LC-MS/MS method. The linearity range of the method is 2.0-5000 ng/ml, and the lower limit of quantification is 2.00 ng/ml. Plasma samples were analyzed after protein precipitation.

Sequence of hURAT1 (Q96S37 whole entry): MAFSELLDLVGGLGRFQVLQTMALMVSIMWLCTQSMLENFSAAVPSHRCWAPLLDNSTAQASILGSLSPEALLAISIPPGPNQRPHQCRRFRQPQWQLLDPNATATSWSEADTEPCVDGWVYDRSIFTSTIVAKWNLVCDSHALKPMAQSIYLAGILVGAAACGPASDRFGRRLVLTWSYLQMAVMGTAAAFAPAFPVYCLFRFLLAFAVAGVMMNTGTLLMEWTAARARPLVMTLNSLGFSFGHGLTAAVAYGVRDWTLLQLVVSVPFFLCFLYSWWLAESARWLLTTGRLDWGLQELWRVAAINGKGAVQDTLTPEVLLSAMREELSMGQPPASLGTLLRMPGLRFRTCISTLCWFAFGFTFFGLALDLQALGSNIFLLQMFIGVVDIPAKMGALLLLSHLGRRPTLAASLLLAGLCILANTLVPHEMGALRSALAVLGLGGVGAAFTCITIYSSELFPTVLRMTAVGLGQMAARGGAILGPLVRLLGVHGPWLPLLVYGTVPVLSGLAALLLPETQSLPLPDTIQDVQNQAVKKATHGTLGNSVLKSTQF

SMILES	IC50 [1] [nM]	further results
COCCOc1ccc2nccc(SC3(C(=O)O)CCC3)c2c1 [Example 5, 1-((6-(2-methoxyethoxy)quinolin-4-yl)thio)cyclobutanecarboxylic acid]	207	–
O=C(O)C1(Sc2ccnc3ccc(C4CC4)cc23)CCC1 [Example 23, 1-((6-cyclopropylquinolin-4-yl)thio)cyclobutanecarboxylic acid]	658	–
O=C(O)C1(Sc2ccnc3ccccc23)CCC1 [Example 1, 1-(quinolin-4-ylthio)cyclobutanecarboxylic acid]	251	Vd/F [2]: 0.652 ± 0.333 L/kg; AUC [2]: 20700 ± 5270 ng·h/mL; CL/F [2]: 2.54 ± 0.68 mL/min/kg; half-life [2]: 2.84 ± 0.65 h; MRT [2]: 3.15 ± 0.82 h; Cmax [2]: 8800 ± 1760 ng/mL
COCc1ccc2nccc(SC3(C(=O)O)CCC3)c2c1 [Example 9, 1-((6-(methoxymethyl)quinolin-4-yl)thio)cyclobutanecarboxylic acid]	197	–
N#Cc1ccc2nccc(SC3(C(=O)O)CCC3)c2c1 [Example 17, 1-((6-cyanoquinolin-4-yl)thio)cyclobutanecarboxylic acid]	398	–
Cc1ccc2nccc(SC3(C(=O)O)CCC3)c2c1 [Example 30, 1-((6-methylquinolin-4-yl)thio)cyclobutanecarboxylic acid]	343	–
N#CCOc1ccc2nccc(SC3(C(=O)O)CCC3)c2c1 [Example 24, 1-((6-(cyanomethoxy)quinolin-4-yl)thio)cyclobutanecarboxylic acid]	680	–
O=C(O)C1(Sc2ccnc3ccc(C(F)(F)F)cc23)CCC1 [Example 2, 1-((6-(trifluoromethyl)quinolin-4-yl)thio)cyclobutanecarboxylic acid]	61	Mean Residence Time MRT [2]: 12.9 ± 5.8 h; Vd/F [2]: 1.21 ± 0.674 L/kg; AUC [2]: 38200 ± 25100 ng·h/mL; CL/F [2]: 1.95 ± 1.31 mL/min/kg; half-life [2]: 8.83 ± 4.04 h; Cmax [2]: 2710 ± 919 ng/mL
O=C(O)C1(Sc2ccnc3ccc(-c4ccccc4C(F)(F)F)cc23)CCC1 [Example 22, 1-((6-(2-(trifluoromethyl)phenyl)quinolin-4-yl)thio)cyclobutanecarboxylic acid]	115	–
O=C(O)C1(Sc2ccnc3cc(Br)ccc23)CCC1 [Example 31, 1-((7-bromoquinolin-4-yl)thio)cyclobutanecarboxylic acid]	129	–
O=C(O)C1(Sc2ccnc3ccc(Br)cc23)CC1 [Example 33, 1-((6-bromoquinolin-4-yl)thio)cyclopropanecarboxylic acid]	324	–
O=C(O)C1(Sc2ccnc3ccc(-c4ccc(F)cc4)cc23)CCC1 [Example 7, 1-((6-(4-fluorophenyl)quinolin-4-yl)thio)cyclobutanecarboxylic acid]	159	–
O=C(O)C1(Sc2ccnc3ccc(Br)cc23)CCCC1 [Example 32, 1-((6-bromoquinolin-4-yl)thio)cyclopentanecarboxylic acid]	352	–
N#Cc1ccc(SC2(C(=O)O)CCC2)c2ccccc12 [Example 10, 1-((4-cyanonaphthalen-1-yl)thio)cyclobutanecarboxylic acid]	926	–
O=C(O)C1(Sc2ccnc3ccc(-c4cccc(C(F)(F)F)c4)cc23)CCC1 [Example 8, 1-((6-(3-(trifluoromethyl)phenyl)quinolin-4-yl)thio)cyclobutanecarboxylic acid]	359	–
O=C(O)C1(Sc2ccnc3ccc(Br)cc23)CCC1 [Example 3, 1-((6-bromoquinolin-4-yl)thio)cyclobutanecarboxylic acid]	19	Vd/F [2]: 0.878 ± 0.335 L/kg; AUC [2]: 28400 ± 8540 ng·h/mL; CL/F [2]: 1.89 ± 0.59 mL/min/kg; half-life [2]: 5.35 ± 1.12 h; MRT [2]: 8.15 ± 1.3 h; Cmax [2]: 3470 ± 854 ng/mL
O=C(O)C1(Sc2ccnc3ccc(F)cc23)CCC1 [Example 12, 1-((6-fluoroquinolin-4-yl)thio)cyclobutanecarboxylic acid]	557	–
COC(=O)COc1ccc2nccc(SC3(C(=O)O)CCC3)c2c1 [Example 13, 1-((6-(2-methoxy-2-oxoethoxy)quinolin-4-yl)thio)cyclobutanecarboxylic acid]	164	–
COc1ccc2nccc(SC3(C(=O)O)CCC3)c2c1 [Example 4, 1-((6-methoxyquinolin-4-yl)thio)cyclobutanecarboxylic acid]	343	–
O=C(O)C1(Sc2ccnc3ccc(-c4cccc(F)c4)cc23)CCC1 [Example 6, 1-((6-(3-fluorophenyl)quinolin-4-yl)thio)cyclobutanecarboxylic acid]	332	–
